According to US10485766B2, “Drug delivery system and method for the treatment of neuro-degenerative disease” (Aphios Corporation, priority 2011, dated 2019):

Tests used:
[1] = tested on: alpha-secretase processing of amyloid precursor protein (APP); assay: alpha-secretase processing of APP to s-APP alpha in SH-SY5Y neuroblastoma cell line; assay type: cell-based; conditions: as nanospheres
Description: (§1) These events are well-described cell and pharmacological events associated with prevention of beta-secretase mediated formation of beta-amyloid, the presumptive cause of dementia in human Alzheimer's disease and in the sweAPP/PS1 mouse model of Alzheimer's disease.

[2] = target: T1, protein kinase C (PKC) isoform alpha (Homo sapiens, UniProt P17252); assay: PKC alpha activation (membrane translocation) in SH-SY5Y cells; assay type: cell-based; conditions: as nanospheres; SH-SY5Y neuroblastoma cell line
T1 construct: (measured by membrane translocation) in the SH-SY5Y neuroblastoma cell line; endogenous in cells; host or cells: SH-SY5Y neuroblastoma cell line

[3] = target: T2, protein kinase C (PKC) isoform epsilon (Homo sapiens, UniProt Q02156); assay: PKC epsilon activation (membrane translocation) in SH-SY5Y cells; assay type: cell-based; conditions: as nanospheres; SH-SY5Y neuroblastoma cell line
T2 construct: (measured by membrane translocation) in the SH-SY5Y neuroblastoma cell line; endogenous in cells; host or cells: SH-SY5Y neuroblastoma cell line
T2 sequence (Q02156 1-737): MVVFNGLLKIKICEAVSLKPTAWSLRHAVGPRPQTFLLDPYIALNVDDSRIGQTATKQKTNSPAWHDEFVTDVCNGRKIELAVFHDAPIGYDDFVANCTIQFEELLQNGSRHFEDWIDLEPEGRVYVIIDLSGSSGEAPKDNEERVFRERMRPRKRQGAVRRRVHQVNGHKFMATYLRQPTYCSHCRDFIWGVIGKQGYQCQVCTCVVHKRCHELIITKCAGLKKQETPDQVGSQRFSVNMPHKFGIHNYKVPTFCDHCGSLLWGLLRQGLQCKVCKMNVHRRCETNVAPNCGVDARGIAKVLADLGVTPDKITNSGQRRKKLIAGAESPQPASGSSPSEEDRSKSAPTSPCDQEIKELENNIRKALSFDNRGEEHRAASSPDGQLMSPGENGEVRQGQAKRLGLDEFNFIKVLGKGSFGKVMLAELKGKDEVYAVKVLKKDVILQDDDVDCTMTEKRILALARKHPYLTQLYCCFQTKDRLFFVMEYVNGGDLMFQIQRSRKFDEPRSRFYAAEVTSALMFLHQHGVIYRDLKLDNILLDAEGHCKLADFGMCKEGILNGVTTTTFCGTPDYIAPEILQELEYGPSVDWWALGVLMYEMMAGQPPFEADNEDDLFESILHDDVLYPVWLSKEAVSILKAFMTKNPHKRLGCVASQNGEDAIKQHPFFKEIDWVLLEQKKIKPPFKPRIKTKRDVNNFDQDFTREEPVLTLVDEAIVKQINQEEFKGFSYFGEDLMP
Description: as §1

[4] = Concentrations of Bryostatin in different solvents (normal phase HPLC); assay type: physicochemical; conditions: for Concentration: theoretical 2.5 mg/100 mL
Method: Isopropyl alcohol, Extra Virgin olive oil, sesame oil, and vegetable oil were all used as solvents.
Thirty microliters of the stock solution were placed in each of 4 clean, dry HPLC vials. The ethanol was allowed to evaporate, leaving 25 micrograms in the vial. Then, 1.0 mL of the solvent was placed in the vial and vortexed to ensure proper mixing. These samples were then injected on a normal phase HPLC system, with a gradient of 10%-70% isopropyl alcohol in hexane as the mobile phase (specifically developed for this experiment).
The concentration of each vial theoretically should be 2.5 mg/100 mL.
The reason for the higher concentrations than the standard (isopropyl alcohol) is due to the baseline. While attempting a baseline subtraction for each oil, there was negative absorbance so the blank IPA sample was subtracted from each sample's baseline. While this incorporates a little more area for integration, the amount of Bryostatin in the oil was quantifiable.

[5] = tested on: Mouse strain B6C3-Tg carrying mutant sweAPP and PS1 genes; assay: Water maze studies; assay type: in vivo; conditions: 5 micrograms/mouse on alternative days orally in oil formulation; sweAPP/PS1 mice, 5-6 months of age; versus control animals
Description: Mouse strain B6C3-Tg carrying mutant Swedish Amyloid precursor protein (sweAPP) and PS1 (presenilin-1) genes associated with early onset Alzheimer's disease were subjected to water maze tests at 5-6 months of age.

With `CCC/C=C/C=C/C(=O)O[C@H]1/C(=C/C(=O)OC)C[C@H]2C[C@H]([C@@H](C)O)OC(=O)C[C@H](O)C[C@@H]3C[C@H](OC(C)=O)C(C)(C)[C@](O)(C[C@@H]4C/C(=C/C(=O)OC)C[C@H](/C=C/C(C)(C)[C@]1(O)O2)O4)O3` [Bryostatin-1] as the compound, how does the “alpha-secretase processing of APP to s-APP alpha” value [1] read?
The value was “induce alpha-secretase processing of amyloid precursor protein (APP) to s-APP alpha”.

And the “activation of PKC alpha (membrane translocation)” value [2]?
Its value is “activate”.

And the “activation of PKC epsilon (membrane translocation)” value [3]?
The value was “activate”.

What about the Concentration ([4]; Solvent Extra Virgin Olive Oil) of the same compound?
Its Concentration is 2.9945 mg/100 mL.

What about the Concentration ([4]; Solvent Extra Virgin olive with mixed natural tocopherol antioxidants, lecithin and medium chain triglyceride emulsifiers) of the same compound?
Its Concentration is 2.4431 mg/100 mL.

What about the Concentration ([4]; Solvent Isopropyl Alcohol (standard)) of the same compound?
Its Concentration is 2.6035 mg/100 mL.

What about the Concentration ([4]; Solvent Vegetable Oil) of the same compound?
The Concentration was 2.5475 mg/100 mL.

And the solubility in oils ([4]; different types of oil)?
Its solubility in oils is “soluble”.

And the “protection against memory loss in water maze” value [5]?
The value was “significant protection”.
